Test results taken from BigSolDB 2.1.

O=C(O)Cc1c[nH]c2ccccc12
solubility (mole fraction)
Conditions	278.15 K	283.15 K	288.15 K	293.15 K	298.15 K	303.15 K	308.15 K	313.15 K	318.15 K	323.15 K
in 1,4-dioxane	–	–	2.06e-05	2.2e-05	2.35e-05	2.51e-05	2.69e-05	2.89e-05	3.12e-05	3.38e-05
in DMF	2.98e-05	3.12e-05	3.29e-05	3.47e-05	3.67e-05	3.9e-05	4.16e-05	4.45e-05	4.74e-05	5.07e-05
in DMSO	–	–	–	3.73e-05	3.95e-05	4.2e-05	4.45e-05	4.77e-05	5.12e-05	5.48e-05
in acetone	2.49e-05	2.6e-05	2.73e-05	2.89e-05	3.07e-05	3.26e-05	3.49e-05	3.73e-05	3.98e-05	4.25e-05
in acetonitrile	6.51e-06	6.98e-06	7.47e-06	8.03e-06	8.68e-06	9.36e-06	1.01e-05	1.1e-05	1.2e-05	1.3e-05
in chloroform	2.88e-06	2.99e-06	3.11e-06	3.29e-06	3.48e-06	3.62e-06	3.88e-06	4.07e-06	4.34e-06	4.61e-06
in ethanol	1.17e-05	1.25e-05	1.35e-05	1.47e-05	1.6e-05	1.73e-05	1.86e-05	2.03e-05	2.22e-05	2.41e-05
in ethyl acetate	3.44e-05	3.64e-05	3.85e-05	4.09e-05	4.32e-05	4.58e-05	4.85e-05	5.13e-05	5.43e-05	5.76e-05
in isopropanol	2.15e-05	2.27e-05	2.41e-05	2.56e-05	2.71e-05	2.88e-05	3.1e-05	3.34e-05	3.58e-05	3.88e-05
in methanol	8.95e-06	9.76e-06	1.05e-05	1.17e-05	1.27e-05	1.38e-05	1.53e-05	1.67e-05	1.83e-05	1.99e-05
in n-butanol	2.78e-05	2.9e-05	3.04e-05	3.2e-05	3.39e-05	3.6e-05	3.83e-05	4.09e-05	4.34e-05	4.65e-05
in n-propanol	1.45e-05	1.54e-05	1.65e-05	1.8e-05	1.93e-05	2.08e-05	2.24e-05	2.42e-05	2.62e-05	2.85e-05
